The text below walks through data of article PMC11435438, “Cyclin-Dependent Kinase 8 Represents a Positive Regulator of Cytomegalovirus Replication and a Novel Host Target for Antiviral Strategies” (Pharmaceutics, 2024).

One test concerns JCPyV strain Mad-4. Put plainly: JCPyV replication assay in COS-7 cells (qPCR). Conditions: Polyomavirus sp.; JCPyV strain Mad-4 in COS-7 cells, n = 1. The test is classed as cell-based, human polyomavirus. Here is the method:
(§1) Primary human foreskin fibroblasts (HFFs; obtained from clinical samples at Children’s Hospital in Erlangen, Germany), guinea pig embryonic fibroblasts (GPEFs; generously provided by Mark R. Schleiss from the University of Minnesota in Minneapolis, MN, USA), and rat embryonic fibroblasts were cultivated in Eagle’s Minimal Essential Medium (MEM) supplemented with 1 × GlutaMAX™ (both from Thermo Fisher Scientific, Waltham, MA, USA), 10 µg/mL gentamicin, and 10% fetal bovine serum (FBS; Capricorn, Ebsdorfergrund, Germany). Human glioblastoma–astrocytoma cell line (U373) and mouse embryonic fibroblasts (MEFs), both obtained from ATCC (Manassas, VA, USA), and Vero cell sublineage 76 [26], were cultivated in Dulbecco’s modified Eagle’s medium (DMEM) supplemented with 1 × GlutaMAX™, 10 µg/mL gentamicin, and 10% fetal bovine serum. All cultured cells were maintained under the conditions of 37 °C temperature, 5% CO2, and 80% humidity. […]
(§2) A variety of antiherpesviral and non-herpesviral drug activities were assessed by the cell culture-based viral replication systems, as described elsewhere. […] After incubation at 37 °C for 3 days, iSLK.219 cells were fixed with 10% formalin, washed with PBS, and used for a quantitation of RFP reporter signal by PicoMD counting (ImageXpress® Pico device, Molecular Devices LLC, San Jose, CA, USA). […]
A general note: In qPCR the cycle at which signal appears reflects the starting amount.

The test system of another test is HHV-6A-GFP. Put plainly: HHV-6A replication assay in J-Jhan cells. The test is classed as cell-based, human herpesvirus type 6A. As to conditions: Homo sapiens, read-out: EC50 HHV-6A. Here is the method:
as §1, with “humidity. The regular monitoring for the absence of mycoplasma contamination was conducted using Lonza™ Mycoalert™ (Thermo Fisher Scientific, Waltham, MA, USA). Cultured cell-based viral replication assays were performed by the use of the HCMV strain AD169 (variant U.K.), the recombinant HCMVs AD169-GFP expressing green fluorescent protein [27], TB40 IE2-YFP and TB40-FLuc expressing an IE2-YFP fusion protein or firefly luciferase (FLuc), and Merlin-GFP [31].” for “humidity.”
as §2

Another test has as its system HCMV AD169. The test is described as follows: Western blot analysis of HCMV protein expression in infected HFFs. The test is classed as cell-based, human cytomegalovirus. Conditions: 30 nM, HCMV AD169 MOI 0.1, 5 d and 7 d p.i. Here is the method:
(§3) Western blot (Wb) analyses were performed as previously described using total lysates prepared from infected and mock-infected HFFs. For this purpose, HFFs were seeded at 3 × 10^5 cells/6-well and used for infection with HCMV AD169, or other viruses as indicated, then treated with compounds or solvent control. At the given time points of infection, the total lysates were prepared and used for separation on standard SDS-PAGE/Wb procedures. For Wb staining, antibodies specific for CDK8 (A302-501A, Bethyl Laboratories, Montgomery, TX, USA); viral proteins such as mAb-IE1, mAb-UL44, mAb-pp28, and mAb-MCP (kindly provided by S. Jonjic and T. Lenac Rovis, Rijeka, Croatia); as well as mAb-β-actin as a house-keeping protein and loading control (A5441, Sigma Aldrich, St. Louis, MO, USA) were used, followed by incubation and staining with the appropriate HRP-conjugated secondary antibodies.

The subject of test [1] is HAdV species C5 DBP-mneongreen. The test is described as follows: HAdV replication assay in A549 cells. Format: cell-based. As to conditions: Human adenovirus sp., A549, read-out: EC50 HAdV. Here is the method: as §1, with “humidity. The regular monitoring for the absence of mycoplasma contamination was conducted using Lonza™ Mycoalert™ (Thermo Fisher Scientific, Waltham, MA, USA). Cultured cell-based viral replication assays were performed by the use of the HCMV strain AD169 (variant U.K.), the recombinant HCMVs AD169-GFP expressing green fluorescent protein [27], TB40 IE2-YFP and TB40-FLuc expressing an IE2-YFP fusion protein or firefly luciferase (FLuc), and Merlin-GFP [31].” for “humidity.”
as §2

The subject of a further test is HCMV AD169-UL50-HA. The test is described as follows: Virus entry analysis, pre-post-incubation versus post-incubation (Western blot). Format: cell-based, human cytomegalovirus. Conditions: CCT 5 nM and 15 nM, HFFs, MOI 0.01, 7 d p.i. Here is the method:
as §3
In general terms: A western blot detects proteins with antibodies after separation by electrophoresis.

Consider `Cn1ncc2cc(-c3cnc(N)c(Cl)c3N3CCC4(CCNC4=O)CC3)ccc21` [CCT-151921], for which the EC50 in the test on JCPyV strain Mad-4 amounted to 3670 ± 3000 nM; in the test with HHV-6A-GFP, 39000 ± 21000 nM; in test [1], 30 ± 30 nM. For the same compound, in the test on HCMV AD169, the “viral late (L) protein level (pp28), Western blot” value is given as “complete inhibition”. Moreover, the “effect at the stage of virus entry” value with HCMV AD169-UL50-HA is “does not act at the stage of virus entry”.
For `Cc1n[nH]c2ncc(C(=O)N3CCC[C@H]3c3ccc(Cl)cc3)cc12` [MSC-2530818], the EC50 is above 50000 nM with HHV-6A-GFP and 340 ± 260 nM in test [1].
Consider `CN(C)C(=O)Cn1cc(-c2ccc(-c3cncc4ccccc34)cc2)cn1` [BI-1347], for which the 50% effective concentration (EC50) with JCPyV strain Mad-4 is 860 ± 1550 nM; in the test with HHV-6A-GFP it was above 50000 nM; in test [1] it was 50 ± 110 nM.

The EC50 is the concentration at which the effect is half-maximal.
